The source of these data is PMC7762503, “Pathomechanism characterization and potential therapeutics identification for SCA3 targeting neuroinflammation” (Aging (Albany NY), 2020).

Each structure is given as a SMILES string. A value given as a limit tells only on which side of the number the result lay.

The nature of data set [1]: MTT cytotoxicity assay, HMC3 cells. The format is cell-based. The following applies: human, 0.1−100 μM, 28 h treatment, read-out: IC50 (cytotoxicity, MTT viability). The procedure: (§1) To evaluate compound cytotoxicity, 2 × 10^4 (HMC3) or 1 × 10^4 (SH-SY5Y) cells were plated on 48-well dishes, grown for 20 h, and treated with the tested compounds (0.1−100 μM). After 28 h (HMC3) or 6 days (SH-SY5Y), 20 μl of 3-(4,5-dimethylthiazol-2-yl)-2,5-diphenyltetrazolium bromide (MTT) (5 mg/ml) was added to the cells at 37°C for 3 h. 200 μl of lysis buffer (10% Triton X-100, 0.1 N HCl, 18% isopropanol) was then added to dishes and the absorbance of the insoluble purple formazan product at OD 570 nm was read by a FLx800 fluorescence microplate spectrophotometer (Bio-Tek, Winooski, VT, USA). The IC50 of the tested compounds were calculated using the interpolation method.

Data set [2] is described as follows: MTT cytotoxicity assay, SH-SY5Y cells. The format is cell-based. As to conditions: human, 0.1−100 μM, 6 days treatment, read-out: IC50 (cytotoxicity, MTT viability). The procedure:
as §1
(Tetrazolium dyes change colour on reduction, which living cells bring about.)

Data set [3] can be described thus: DPPH radical-scavenging assay. The following applies: 200 μM DPPH, compounds 10–160 μM, 30 min, room temperature. The procedure: The DPPH radical-scavenging activity was measured in an ethanol mixture containing 200 μM DPPH (Sigma-Aldrich) radical solution and the tested compounds (10–160 μM). The solution was vortexed and incubated for 30 min at room temperature. The scavenging capacity was measured by monitoring the decrease in absorbance at 517 nm with a microplate spectrophotometer (Multiskan GO, Thermo Fisher Scientific). The half maximal effective concentrations (EC50) for inhibition of the formation of DPPH radicals were calculated using the interpolation method.

In data set [4] the test system is ATXN3/Q75-GFP. Kind of data set: High content polyQ aggregation analysis, ATXN3/Q75-GFP SH-SY5Y cells. The format is cell-based, human. The following applies: 10 μM compound, ATXN3/Q75-GFP-expressing cells; for reduction of aggregation: vs untreated 2.8%. The procedure:
(§2) ATXN3/Q75-GFP SH-SY5Y cells were plated on 24-well (1 × 10^4/well) dishes, and retinoic acid (10 μM; Sigma-Aldrich) was added to initiate neuronal differentiation. On the second day, cells were treated with the tested compound (10 μM) for 8 h before ATXN3-GFP expression induction by adding doxycycline (5 μg/ml). For comparison, cells without inducing ATXN3/Q75-GFP expression were included. The cells were kept in the medium containing retinoic acid, doxycycline and test compound for 6 days. For the cells with inflammatory stimulation, HMC3 conditioned medium with (CM/+IFN-γ) or without (CM/–IFN-γ) IFN-γ stimulation was added at a 1:1 ratio in the last two days. On the eighth day, cells were stained with Hoechst 33342 (0.1 μg/ml; Sigma-Aldrich) for 30 min, and images of the cells were automatically obtained using an ImageXpressMICRO high content analysis (HCA) system (Molecular Devices, San Jose, CA, USA). Excitation/emission filters were at 482/536 and 377/447 nm for enhanced GFP and Hoechst 33342, respectively. Aggregation was determined by Transfluor technology based on GFP fluorescence intensity. Neurite length, process and branch of ATXN3/Q75-GFP-expressing cells were analyzed by using Metamorph microscopy automation and image analysis software (neurite outgrowth application module, Molecular Devices). In addition, cells were fixed, permeated and stained with neuronal class III β-tubulin (TUBB3) antibody (1:1000; Covance, Princeton, NJ, USA), followed by anti-rabbit Alexa Fluor ®555 antibody (1:1000; Thermo Fisher Scientific) for neurite outgrowth analysis. To quantify neurite outgrowth, microscopic images were segmented with multi-colored mask to assign each outgrowth to a cell body for quantification. In general, 10^4 cells in each biological replicate were analyzed.

Data set [5] concerns ATXN3/Q75-GFP. Kind of data set: Western blot of soluble ATXN3/Q75-GFP protein. The format is cell-based, human. As to conditions: 10 μM compound; without compound = 100%. The procedure:
Cells were lysed using buffer (50 mM Tris-HCl pH8.0, 0.5% sodium deoxycholate, 0.1% SDS, 150 mM NaCl, 2 mM EDTA, 50 mM NaF and 1% NP40) containing the protease inhibitor cocktail (Sigma-Aldrich). After sonication, the lysates were centrifuged at 12,000 × g for 10 min at 4°C. Protein concentrations were determined using a protein assay kit (Bio-Rad, Hercules, CA, USA), with albumin as standards. Total soluble proteins (20 μg) were electrophoresed on 10% SDS-polyacrylamide gel and transferred onto polyvinylidene difluoride membrane (Sigma-Aldrich) by reverse electrophoresis. After being blocked, the membrane was stained with ATXN3 (1:1000; GeneTex, Irvive, CA, USA), GFP (1:1000; Santa Cruz Biotechnology, Santa Cruz, CA, USA), CD68 (1:1000; Cell Signaling), IκBα (1:1000; Cell Signaling), p-IκBα (S32/36) (1:1000; Cell Signaling), P65 (1:1000; Cell Signaling), p-P65 (S536) (1:1000; Cell Signaling), JNK (1:1000; Cell Signaling), p-JNK (T183/Y185) (1:500; Cell Signaling), JUN, p-JUN (S63) (1:1000; Cell Signaling), P38 (1:1000; Cell Signaling), p-P38 (T180/Y182) (1:1000; Cell Signaling), STAT1 (1:1000; Cell Signaling), p-STAT1 (S727) (1:1000; Cell Signaling), or GAPDH (1:5000; MDBio Inc., Taipei, Taiwan) primary antibody at room temperature 2 h or 4°C overnight. The immune complexes were detected using horseradish peroxidase (HRP)-conjugated goat anti-mouse or goat anti-rabbit IgG antibody (1:5000; GeneTex) and chemiluminescent HRP substrate (Millipore, Billerica, MA, USA).
On the technique in general: A western blot detects proteins with antibodies after separation by electrophoresis.

Data set [6] has as its system ATXN3/Q75-GFP SH-SY5Y cells. Briefly: Neurite outgrowth analysis, ATXN3/Q75-GFP SH-SY5Y cells. In kind it is cell-based, human. As to conditions: 10 μM compound, ATXN3/Q75-GFP-expressing cells; for neurite branch: untreated 1.0; for neurite process: untreated 1.8; for neurite length: untreated 23.6 μm. The procedure:
as §2

In data set [7] the test system is ATXN3/Q75-GFP SH-SY5Y cells. Kind of data set: Neurite outgrowth analysis, CM/+IFN-γ-inflamed ATXN3/Q75-GFP SH-SY5Y cells. The format is cell-based, human. The following applies: 10 μM compound; for neurite process: untreated 1.4; for neurite length: untreated 14.4 μm. The procedure: as §2

Take `O=[N+]([O-])c1cccc2nc(/C=C/c3cc4ccccc4nc3N3CCOCC3)ccc12` [VB-037]: the IC50 (commonly the midpoint of a concentration-inhibition curve) at 28 h in data set [1] was above 100 µM. Moreover, in data set [2], the IC50 at 6 days amounted to 78 µM. Moreover, the “DPPH scavenging activity EC50” value in data set [3] is reported as “no detectable DPPH-scavenging activity”. For the same compound, the reduction of aggregation with ATXN3/Q75-GFP [4] is on record as 12–25%. Also, in the data set on ATXN3/Q75-GFP [5], the “soluble ATXN3/Q75-GFP protein (Western blot, GFP antibody)” value (“soluble ATXN3/Q75-GFP protein” for short) is recorded as 144−173%. For the same compound, in data set [6], the neurite branch was determined as 1.2, the neurite process is given as 2.0–2.1 and the neurite length was 26.9–27.2 μm.
`O=c1c(O)c(-c2ccc(O)cc2)oc2cc(O)cc(O)c12` [Kaempferol, kaempferol, reference compound]: it took 27 µM to reach a half-maximal effect in data set [3] (EC50).
On to `CCCCC/C=C\C/C=C\C/C=C\C/C=C\CCCC(=O)Nc1ccc(O)cc1` [AM404, reference compound], for which the IC50 at 28 h in data set [1] came out at 84 µM. For the same compound, the IC50 at 6 days in data set [2] is 49 µM. Moreover, the EC50 (commonly the concentration needed to bring the measured effect to its halfway point) in data set [3] was found to be 141 µM. In addition, the “polyQ aggregation (cells with aggregates)” value with ATXN3/Q75-GFP [4] (untreated 2.8%) was “not reducing ATXN3/Q75 aggregation”. In data set [6], the neurite branch came out at 1.4, the neurite process amounted to 2.2 and the neurite length was 30.8 μm. Also, in data set [7], the neurite process is reported as 1.6 and the neurite length is recorded as 17.3–18.0 μm.
`CC(=O)/C(=C/c1ccccc1[N+](=O)[O-])Cc1c[nH]c2ccccc12` [NC009-1]: the IC50 at 28 h in data set [1] is above 100 µM. In addition, the IC50 at 6 days in data set [2] was 52 µM. In addition, the “DPPH scavenging activity EC50” value in data set [3] is “no detectable DPPH-scavenging activity”. In addition, the reduction of aggregation with ATXN3/Q75-GFP [4] is given as 12–25%. The “soluble ATXN3/Q75-GFP protein” value in the data set on ATXN3/Q75-GFP [5] was 144−173%. Further, in data set [6], the neurite branch is listed as 1.2, the neurite process is given as 2.0–2.1 and the neurite length was 26.9–27.2 μm. In addition, in data set [7], the neurite process is listed as 1.6 and the neurite length is listed as 17.3–18.0 μm.
For the compound `O=C(c1ccccc1)c1cc2c(O)cccc2oc1=O` [LM-031, 3-benzoyl-5-hydroxychromen-2-one], the IC50 at 28 h in data set [1] was above 100 µM. Moreover, the IC50 at 6 days in data set [2] was above 100 µM. Besides, it took 100 µM to reach a half-maximal effect in data set [3] (EC50). For the same compound, in the data set with ATXN3/Q75-GFP [4], the reduction of aggregation is 12–25%. Also, the “soluble ATXN3/Q75-GFP protein” value with ATXN3/Q75-GFP [5] was 144−173%. Further, the values for the neurite branch in data set [6] and in data set [7] (untreated 0.6) were 1.2 and 0.8, respectively. In addition, the neurite process is 2.0–2.1 in data set [6] and 1.6 in data set [7]. For the same compound, the results for the neurite length in data set [6] and in data set [7] were 26.9–27.2 μm and 17.3–18.0 μm, respectively.
